Assay results as given in US20110086759A1, “CHEMICAL COMPOUNDS” (SYNGENTA CROP PROTECTION, INC., priority 2007, published 2011).

Columns and labels:
Format in all cases: in vivo
[1] = tested on: Solanum nigrum (SOLNI); test: Post-emergence biological efficacy, glasshouse pot test; conditions: 312 h, post-emergence, 1,000 g/ha, evaluated after 13 days (100=total damage; 0=no damage), read-out: Percentage damage caused to weed species, SOLNI
Method in brief: (§1)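 Pot-grown weeds were sprayed 8 days after sowing with test compound in acetone/water (50:50) with 0.5% Tween 20 at 1000 or 250 g/ha. Glasshouse at 24/16° C day/night, 14 h light, 65% humidity. Damage scored 0-100 (100 = total damage) after 13 days.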

[2] = tested on: Echinochloa crus-galli (ECHCG); test: as above; conditions: 312 h, post-emergence, 1,000 g/ha, evaluated after 13 days (100=total damage; 0=no damage), read-out: Percentage damage caused to weed species, ECHCG
Method in brief: as §1

[3] = tested on: Alopecurus myosuroides (ALOMY); test: as above; conditions: 312 h, post-emergence, 1,000 g/ha, evaluated after 13 days (100=total damage; 0=no damage), read-out: Percentage damage caused to weed species, ALOMY
Method in brief: as §1

[4] = tested on: Amaranthus retoflexus (AMARE); test: as above; conditions: Amaranthus retroflexus, 312 h; post-emergence, 1,000 g/ha, evaluated after 13 days (100=total damage; 0=no damage); read-out: Percentage damage caused to weed species, AMARE
Method in brief: as §1

[5] = tested on: Ipomea hederaceae (IPOHE); test: as above; conditions: Ipomoea hederacea, 312 h; post-emergence, 1,000 g/ha, evaluated after 13 days (100=total damage; 0=no damage); read-out: Percentage damage caused to weed species, IPOHE
Method in brief: as §1

[6] = tested on: Setaria faberi (SETFA); test: as above; conditions: 312 h, post-emergence, 1,000 g/ha, evaluated after 13 days (100=total damage; 0=no damage), read-out: Percentage damage caused to weed species, SETFA
Method in brief: as §1

[7] = tested on: Solanum nigrum (SOLNI); test: Pre-emergence biological efficacy, glasshouse pot test; conditions: 312 h, pre-emergence, 1,000 g/ha, evaluated after 13 days (100=total damage; 0=no damage), read-out: Percentage damage SOLNI
Method in brief: (§2)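 Visual phytotoxicity (0 no damage, 100 total damage) assessed 13 d after treatment. Soil-sown pots sprayed one day post-sowing; dose 1000 or 250 g/ha; formulation in acetone/water 50:50, 0.5% Tween 20.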

[8] = tested on: Echinochloa crus-galli (ECHCG); test: as above; conditions: 312 h, pre-emergence, 1,000 g/ha, evaluated after 13 days (100=total damage; 0=no damage), read-out: Percentage damage ECHCG
Method in brief: as §2

[9] = tested on: Alopecurus myosuroides (ALOMY); test: as above; conditions: 312 h, pre-emergence, 1,000 g/ha, evaluated after 13 days (100=total damage; 0=no damage), read-out: Percentage damage ALOMY
Method in brief: as §2

[10] = tested on: Amaranthus retoflexus (AMARE); test: as above; conditions: Amaranthus retroflexus, 312 h; pre-emergence, 1,000 g/ha, evaluated after 13 days (100=total damage; 0=no damage); read-out: Percentage damage AMARE
Method in brief: as §2

[11] = tested on: Ipomea hederaceae (IPOHE); test: as above; conditions: Ipomoea hederacea, 312 h; pre-emergence, 1,000 g/ha, evaluated after 13 days (100=total damage; 0=no damage); read-out: Percentage damage IPOHE
Method in brief: as §2

[12] = tested on: Setaria faberi (SETFA); test: as above; conditions: 312 h, pre-emergence, 1,000 g/ha, evaluated after 13 days (100=total damage; 0=no damage), read-out: Percentage damage SETFA
Method in brief: as §2

| SMILES | pest or weed control at 1000 g/ha [1] [%] | pest or weed control at 1000 g/ha [2] [%] | pest or weed control at 1000 g/ha [3] [%] | pest or weed control at 1000 g/ha [4] [%] | pest or weed control at 1000 g/ha [5] [%] | pest or weed control at 1000 g/ha [6] [%] | pest or weed control at 1000 g/ha [7] [%] | pest or weed control at 1000 g/ha [8] [%] | pest or weed control at 1000 g/ha [9] [%] | pest or weed control at 1000 g/ha [10] [%] | pest or weed control at 1000 g/ha [11] [%] | pest or weed control at 1000 g/ha [12] [%] |
| --- | --- | --- | --- | --- | --- | --- | --- | --- | --- | --- | --- | --- |
| COC(=O)c1nc(C2CC2)nc(NC2(CCc3ccccc3)CC2)c1Cl [Compound 4-17, 5-Chloro-2-cyclopropyl-6-methoxycarbonyl-4-[1-(2-phenylethyl)-cyclopropylamino]-pyrimidine] | 70 | 30 | 20 | 100 | 60 | 60 | 10 | 20 | 10 | 50 | 70 | 0 |
| COC(=O)c1nc(C2CC2)nc(NC2(/C=C/c3ccc(F)cc3)CC2)c1Cl [Compound 4-20, 5-Chloro-2-cyclopropyl-4-{1-[2-(4-fluorophenyl)-ethenyl]-cyclo-propylamino}-6-methoxycarbonyl-pyrimidine] | 80 | 50 | 20 | 100 | 100 | 70 | 20 | 0 | 0 | 50 | 50 | 0 |
| COC(=O)c1nc(C2CC2)nc(NC2(/C=C/c3ccc(Cl)cc3)CC2)c1Cl [Compound 4-21, 5-Chloro-4-{1-[2-(4-chlorophenyl)-ethenyl]-cyclopropylamino}-2-cyclopropyl-6-methoxycarbonyl-pyrimidine] | 80 | 50 | 20 | 100 | 80 | 60 | 50 | 0 | 0 | 20 | 70 | 0 |
| COC(=O)c1nc(C2CC2)nc(NC2(/C=C/c3cc(C(F)(F)F)cc(C(F)(F)F)c3)CC2)c1Cl [Compound 4-22, 4-{1-[2-(3,5-Bis-trifluoromethylphen-yl)-ethenyl]-cyclopropylamino}-5-chloro-2-cyclopropyl-6-methoxycarbonyl-pyrimidine] | 100 | 40 | 30 | 100 | 100 | 80 | 20 | 20 | 20 | 70 | 80 | 10 |
| COC(=O)c1nc(C2CC2)nc(NC2(/C=C/c3cccs3)CC2)c1Cl [Compound 4-23, 5-Chloro-2-cyclopropyl-6-methoxycarbonyl-4-[1-(2-thiophen-2-ylethenyl)-cyclopropylamino]-pyrimidine] | 80 | 60 | 20 | 100 | 100 | 70 | 60 | 0 | 10 | 70 | 70 | 0 |
| COC(=O)c1nc(C2CC2)nc(NC2(/C=C/c3ccccc3Cl)CC2)c1Cl [Compound 4-24, 5-Chloro-4-{1-[2-(2-chlorophenyl)-ethenyl]-cyclopropylamino}-2-cyclopropyl-6-methoxycarbonyl-pyrimidine] | 80 | 30 | 10 | 100 | 100 | 60 | 90 | 0 | 10 | 100 | 40 | 0 |
| COC(=O)c1nc(C2CC2)nc(NC2(/C=C/c3ccc(C)cc3)CC2)c1Cl [Compound 4-25, 5-Chloro-2-cyclopropyl-6-methoxycarbonyl-4-{1-[2-(4-methylphenyl)-ethenyl]-cyclopropylamino}-pyrimidine] | 80 | 60 | 40 | 100 | 100 | 60 | 60 | 10 | 10 | 100 | 30 | 0 |
| COC(=O)c1nc(C2CC2)nc(NC2(/C=C/c3c(F)cccc3F)CC2)c1Cl [Compound 4-26, 5-Chloro-2-cyclopropyl-4-{1-[2-(2,6-difluoro-phenyl)ethenyl]-cyclopropylamino}-6-methoxy-carbonylpyrimidine] | 70 | 20 | 20 | 100 | 90 | 60 | 20 | 0 | 10 | 20 | 50 | 0 |
| COC(=O)c1nc(C2CC2)nc(NC2(/C=C/c3ccccc3F)CC2)c1Cl [Compound 4-27, 5-Chloro-2-cyclopropyl-4-{1-[2-(2-fluorophenyl)-ethenyl]-cyclo-propylamino}-6-methoxycarbonyl-pyrimidine] | 80 | 60 | 10 | 100 | 100 | 70 | 10 | 0 | 10 | 40 | 80 | 0 |
| COC(=O)c1nc(C2CC2)nc(NC2(/C=C/c3ccc(Cl)cc3Cl)CC2)c1Cl [Compound 4-28, 5-Chloro-2-cyclopropyl-4-{1-[2-(2,4-dichloro-phenyl)ethenyl]-cyclopropyl-amino}-6-methoxy-carbonylpyrimidine] | 80 | 30 | 10 | 100 | 100 | 50 | 40 | 0 | 10 | 90 | 70 | 10 |
